# Measurements: patent US4839385A, “Use of manoalide and its derivatives for modifying calcium homeostasis” (The Regents of the University of California, priority 1987, dated 1989)
# Columns and labels:
# Type in all cases: cell-based
# [1] = test system: plasma membrane calcium channels; experiment: Calcium entry through plasma membrane calcium channels, gastric glands; settings: 1 μM and less
# From the text: (§1) The effect of manoalide on intracellular calcium levels was investigated through experiments using gastric glands. These glands contain two types of cells that use either plasma membrane channels or release from intracellular stores to increase cytosolic calcium.
# [2] = test system: intracellular stores; experiment: Calcium release from intracellular stores, gastric glands; settings: 30-50 μM
# From the text: as §1
# [3] = test system: Parietal cells; experiment: Acid secretion in parietal cells after carbachol or forskolin stimulation
# [4] = test system: Peptic cells; experiment: CCK or carbachol stimulated increase in calcium (release from intracellular stores) in peptic cells
# Method: (§2) Gastric glands contain both peptic cells (release of calcium from intracellular stores) and parietal cells (plasma membrane calcium channel). Gastric cells were isolated as described by Muallem, et. al. (Amer. J. Physiol. 248-G216-G228, 1985). Addition of CCK or carbachol to a final concentration of […] and 0.1 mM respectively were used to activate these cells. Muallem et al. (J. Biol. Chem.: In Press, 1986) have shown that these hormones stimulate these cells and result in an increase in free intracellular cytosolic calcium.
# (§3) With peptic cells, the hormones CCK or carbachol cause release of calcium from intracellular stores. […] The calcium signal in these cells is different from that observed in the conconavalin stimulated release of calcium from spleen cells.
# The calcium transient observed is characteristic of the release of calcium from intracellular stores. If calcium is removed from the extracellular medium it has no effect on the calcium signal.
# [5] = test system: Peptic cells; experiment: Pepsin secretion in peptic cells after CCK, carbachol or forskolin stimulation
# Method: as §2, §3
# To examine the correlation between secretion and the calcium signal, the effects of manoalide on pepsin secretion were quantitated (Table 3).
# [6] = test system: EL-4; experiment: Inhibition of growth of tumor cell line EL-4
# [7] = test system: A431 cells; experiment: EGF-induced calcium signal in A431 human epidermoid carcinoma cells; settings: 1.5 μM; 5 minutes; EGF 5 μg/ml
# Method: The A431 cell line, human epidermoid carcinoma cell, can be activated with 5 μg/ml epidermal growth factor (EGF). Sawyer, S. T. and Cohen, S (Biochemistry 20, 6280-6286, 1981) have shown that EGF enhances calcium uptake in these cells.
# A431 Cells were grown in 150 ml Falcon flasks containing Dulbecco's modified Eagle's medium (Gibco) supplemented with 10% fetal calf serum (Irvine Scientific) and gentamycin.
# [8] = test system: Mouse spleen cells; experiment: Effect of manoalide on Con A-induced rise in intracellular calcium in mouse spleen cells (FURA-2)
# Method: When 40 μg/ml Con A was added to single cell suspensions of mouse spleen cells were prepared by the standard methods, a rapid rise in intracellular calcium was observed. This calcium signal is characteristic of calcium moving from outside the cell to inside through a plasma membrane channel. If calcium is removed from the external medium, the rise in intracellular calcium is completely absent.
# (§4) The concentration of free intracellular calcium was determined by loading the cells with a calcium sensitive florescent dye, FURA-2® (Grynkiewicz, G., Poenig, M. and Tsien, R. J., Biol. Chem 260: 3440-3450, 1985). Fluorescence measurements and calibration curves were done the same as for Quin-2, Pandol, S., Schoeffield, M., Sachs, G. and Muallem, S. (J. Biol. Chem 10081-10086, 1985).
# (§5) Once the cells were loaded, aliquots (10^6 cells/ml) were placed in cuvettes and the baseline intracellular calcium concentration determined.
# (§6) Manoalide was dissolved in polyethylene glycol 400 or dimethylsulfoxide and added as indicated before the Con A was added to the cuvette.
# (§7) *All cells were preincubated at 37° C. for 5 minutes before
# (§8) addition of Con A (40 μg/ml).
# [9] = test system: Human lymphocytes; experiment: Effect of manoalide on Con A-induced calcium rise in human lymphocytes (FURA-2); settings: Lymphocyte, 5 min preincubation 37° C., Con A 40 μg/ml
# Method: as §4, §5, §6
# Similar results were obtained with human lymphocytes isolated and prepared according to the method of Muallem, et al.
# as §7, §8
smiles,measurement,setting,value
CC1=C(CC/C(C)=C/CCC2=CCC(C3=CC(=O)OC3O)OC2O)C(C)(C)CCC1 (centres unmarked) [manoalide],calcium entering through the plasma membrane calcium channels,[1],inhibits calcium from entering
same,calcium release from intracellular stores,[2],blocks calcium release
same,activity at 0.1 µM,[3]; Carbachol Stimulation,50%
same,activity at 0.1 µM,[3]; Forskolin,100%
same,activity at 0.5 µM,[3]; Carbachol Stimulation,10%
same,activity at 0.5 µM,[3]; Forskolin,100%
same,activity at 5 µM,[3]; Carbachol Stimulation,0%
same,activity at 5 µM,[3]; Forskolin,100%
same,activity at 50 µM,[3]; Carbachol Stimulation,0%
same,activity at 50 µM,[3]; Forskolin,100%
same,acid secretion in parietal cells,[3]; preincubation with 0.1-5.0 μM,blocked acid secretion
same,inhibition of CCK or carbachol stimulated increase in calcium,[4]; 5 μM,no inhibition
same,inhibition of the calcium signal,[4]; 50 μM or higher,showed inhibition of the calcium signal
same,nature of the inhibition of the calcium signal,[4]; 50 μM or higher,irreversible and time dependent
same,inhibition of the calcium signal,[4]; 60 μM,significant inhibition of the calcium signal
same,activity at 0.1 µM,[5]; CCK Stimulation (N = 5),100%
same,activity at 0.1 µM,[5]; Carbachol (2),100%
same,activity at 0.1 µM,[5]; Forskolin (2),100%
same,activity at 0.5 µM,[5]; CCK Stimulation (N = 5),105%
same,activity at 0.5 µM,[5]; Carbachol (2),110%
same,activity at 0.5 µM,[5]; Forskolin (2),100%
same,activity at 5 µM,[5]; CCK Stimulation (N = 5),115%
same,activity at 5 µM,[5]; Carbachol (2),110%
same,activity at 5 µM,[5]; Forskolin (2),100%
same,activity at 50 µM,[5]; CCK Stimulation (N = 5),60%
same,activity at 50 µM,[5]; Carbachol (2),40%
same,activity at 50 µM,[5]; Forskolin (2),100%
same,minimal effective concentration,"[5]; peptic cells, read-out: concentration below which no inhibition of the biological effect was observed",> 50 µM
same,tumor cell growth inhibition,[6],inhibited from growing
same,effect on the Ca signal,[7],complete abolition
same,inhibition of the rise in intracellular calcium,"[8]; 0.5 μM, 5 min preincubation 37° C., 40 μg/ml Con A",complete inhibition
same,nature of the inhibition of the calcium signal,[8]; Con A 40 μg/ml,time dependent and irreversible
same,inhibition at 0.01 µM,"[8]; Mus musculus, 0.01 μM, 5 min preincubation 37° C., Con A 40 μg/ml",0%
same,inhibition at 0.1 µM,"[8]; Mus musculus, 0.1 μM, 5 min preincubation 37° C., Con A 40 μg/ml",30%
same,inhibition at 0.3 µM,"[8]; Mus musculus, 0.3 μM, 5 min preincubation 37° C., Con A 40 μg/ml",70%
same,inhibition at 1 µM,"[8]; Mus musculus, 1.0 μM, 5 min preincubation 37° C., Con A 40 μg/ml",100%
same,inhibition at 0.05 µM,[9]; 0.05 μM,0%
same,inhibition at 0.1 µM,[9]; 0.1 μM,15%
same,inhibition at 0.25 µM,[9]; 0.25 μM,30%
same,inhibition at 0.5 µM,[9]; 0.5 μM,65%
same,inhibition at 1 µM,[9]; 1.0 μM,100%
